Data on 20 molecules can be found in patent US8557552B2, “Selective neuronal nitric oxide synthase inhibitors” (Northwestern University, priority 2011, dated 2013).

What is called pKi is the negative decadic logarithm of the Ki, by convention in mol/L.

What all share (type): biochemical
The target of one experiment is bovine eNOS (Bos taurus, UniProt P29473). Briefly: NOS enzyme inhibition assay, eNOS. To be noted: for pKi: bovine eNOS; for Selectivity n/e: ratio Ki eNOS to Ki nNOS.
For a further experiment, the target named is murine iNOS (Mus musculus, UniProt P29477). Briefly: NOS enzyme inhibition assay, iNOS. To be noted: for Selectivity n/i: ratio Ki iNOS to Ki nNOS.
For another experiment, the target named is rat nNOS (Rattus norvegicus, UniProt P29476). In words: NOS enzyme inhibition assay, nNOS. Conditions: for pKi: rat nNOS.
Chain of rat nNOS (P29476 whole entry): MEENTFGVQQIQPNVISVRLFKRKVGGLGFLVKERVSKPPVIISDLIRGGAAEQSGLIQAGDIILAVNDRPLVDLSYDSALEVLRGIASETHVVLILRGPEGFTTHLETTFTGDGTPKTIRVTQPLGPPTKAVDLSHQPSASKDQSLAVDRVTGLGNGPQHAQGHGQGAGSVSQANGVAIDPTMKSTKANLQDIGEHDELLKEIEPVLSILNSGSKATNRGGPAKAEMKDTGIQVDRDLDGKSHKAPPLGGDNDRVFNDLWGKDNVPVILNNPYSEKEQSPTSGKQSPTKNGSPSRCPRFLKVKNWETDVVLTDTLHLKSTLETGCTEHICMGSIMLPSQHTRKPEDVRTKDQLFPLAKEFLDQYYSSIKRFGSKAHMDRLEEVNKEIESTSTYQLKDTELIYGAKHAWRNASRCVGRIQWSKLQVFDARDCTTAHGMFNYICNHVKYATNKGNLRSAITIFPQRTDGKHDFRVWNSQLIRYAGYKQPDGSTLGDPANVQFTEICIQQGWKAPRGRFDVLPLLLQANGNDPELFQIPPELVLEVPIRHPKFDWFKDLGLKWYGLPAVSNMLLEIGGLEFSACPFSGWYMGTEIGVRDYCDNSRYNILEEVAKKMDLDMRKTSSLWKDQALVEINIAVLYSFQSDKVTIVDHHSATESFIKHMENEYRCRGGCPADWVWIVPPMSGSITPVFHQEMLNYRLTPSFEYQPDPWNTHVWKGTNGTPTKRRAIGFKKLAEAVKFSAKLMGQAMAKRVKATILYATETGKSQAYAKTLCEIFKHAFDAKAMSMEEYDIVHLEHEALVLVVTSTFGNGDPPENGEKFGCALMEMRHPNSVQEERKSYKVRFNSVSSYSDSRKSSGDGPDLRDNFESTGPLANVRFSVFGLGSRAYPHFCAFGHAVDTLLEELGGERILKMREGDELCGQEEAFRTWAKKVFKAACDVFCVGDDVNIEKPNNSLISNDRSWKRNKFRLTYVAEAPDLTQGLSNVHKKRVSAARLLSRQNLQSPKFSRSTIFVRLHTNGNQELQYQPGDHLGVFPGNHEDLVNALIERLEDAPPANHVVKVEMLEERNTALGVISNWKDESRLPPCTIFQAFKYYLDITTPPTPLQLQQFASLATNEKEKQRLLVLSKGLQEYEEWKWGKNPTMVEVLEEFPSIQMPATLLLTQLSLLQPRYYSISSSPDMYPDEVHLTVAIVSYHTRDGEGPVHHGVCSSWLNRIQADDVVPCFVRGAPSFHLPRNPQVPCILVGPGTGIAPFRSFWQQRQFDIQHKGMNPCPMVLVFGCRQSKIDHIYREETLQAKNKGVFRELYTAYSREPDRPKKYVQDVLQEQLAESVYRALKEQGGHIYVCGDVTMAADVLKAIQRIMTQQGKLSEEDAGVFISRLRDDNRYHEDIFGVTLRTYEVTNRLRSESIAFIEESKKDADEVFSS
[1] abbreviates: KM 1.7 μM, Ki = IC50/(1 + [S]/KM), Table 2.
[2] abbreviates: murine iNOS, KM 8.2 μM, Ki = IC50/(1 + [S]/KM), Table 2.
Where [3] appears, read: KM 1.3 μM, Ki = IC50/(1 + [S]/KM), Table 2.

Molecules are shown by their SMILES. pKi: −log10 of the molar value.

Chain of bovine eNOS (P29473 whole entry): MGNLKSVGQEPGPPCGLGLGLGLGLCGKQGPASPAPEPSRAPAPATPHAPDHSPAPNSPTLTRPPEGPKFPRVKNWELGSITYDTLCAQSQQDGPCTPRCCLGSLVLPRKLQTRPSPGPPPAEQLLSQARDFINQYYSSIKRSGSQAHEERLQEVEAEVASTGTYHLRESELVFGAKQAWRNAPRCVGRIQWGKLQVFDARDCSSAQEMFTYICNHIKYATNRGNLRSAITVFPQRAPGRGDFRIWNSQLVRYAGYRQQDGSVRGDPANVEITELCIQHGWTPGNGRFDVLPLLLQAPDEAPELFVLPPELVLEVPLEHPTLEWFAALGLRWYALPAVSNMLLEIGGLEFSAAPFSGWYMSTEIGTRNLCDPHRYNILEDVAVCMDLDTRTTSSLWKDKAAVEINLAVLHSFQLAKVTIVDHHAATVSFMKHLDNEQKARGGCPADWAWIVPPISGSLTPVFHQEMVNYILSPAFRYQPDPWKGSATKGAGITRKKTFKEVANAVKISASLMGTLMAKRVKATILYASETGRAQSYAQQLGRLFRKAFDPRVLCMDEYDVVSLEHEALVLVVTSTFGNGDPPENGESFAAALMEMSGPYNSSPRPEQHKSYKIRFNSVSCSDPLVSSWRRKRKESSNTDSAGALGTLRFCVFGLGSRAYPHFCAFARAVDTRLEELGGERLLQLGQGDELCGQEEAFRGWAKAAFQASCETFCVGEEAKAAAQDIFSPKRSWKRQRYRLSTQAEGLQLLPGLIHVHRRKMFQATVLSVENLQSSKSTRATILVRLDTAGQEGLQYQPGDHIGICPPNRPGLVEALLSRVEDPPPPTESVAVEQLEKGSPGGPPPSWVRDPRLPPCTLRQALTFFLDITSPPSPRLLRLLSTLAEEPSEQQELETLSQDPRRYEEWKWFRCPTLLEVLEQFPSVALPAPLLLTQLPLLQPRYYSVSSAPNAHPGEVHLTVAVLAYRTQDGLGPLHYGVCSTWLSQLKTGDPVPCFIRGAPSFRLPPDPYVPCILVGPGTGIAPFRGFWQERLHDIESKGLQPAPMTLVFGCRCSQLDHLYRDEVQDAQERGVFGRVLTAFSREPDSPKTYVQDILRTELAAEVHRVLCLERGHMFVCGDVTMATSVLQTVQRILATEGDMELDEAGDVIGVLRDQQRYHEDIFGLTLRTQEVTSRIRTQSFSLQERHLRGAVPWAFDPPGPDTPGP

With `Cc1cc(N)nc(C[C@@H]2CNC[C@@H]2OCCCOc2cc(F)cc(Cl)c2)c1` [25d], the pKi at bovine eNOS (in vitro, Table 1) was 5.04; at murine iNOS (in vitro, Table 1), 4.39; on rat nNOS (in vitro, Table 1), 6.34. Moreover, the Selectivity n/e on bovine eNOS (Table 1) turned out to be 19.9. The Selectivity n/i at murine iNOS (Table 1) amounted to 90.6.

As to `Cc1cc(N)nc(C[C@@H]2CNC[C@@H]2OCCCOc2cc(Cl)cc(C(F)(F)F)c2)c1` [25e], the negative-log Ki (pKi) at bovine eNOS (in vitro, Table 1) was 5.86; on murine iNOS (in vitro, Table 1) it was 4.59; on rat nNOS (in vitro, Table 1), 6.03. Further, the Selectivity n/e on bovine eNOS (Table 1) worked out at 1.5. The Selectivity n/i at murine iNOS (Table 1) stood at 27.5.

As to `Cc1cc(N)nc(C[C@@H]2CNC[C@@H]2OCCCOc2ccc(F)c(Cl)c2)c1` [25b], the pKi on bovine eNOS (in vitro, Table 1) was 4.98; on murine iNOS (in vitro, Table 1), 4.73; on rat nNOS (in vitro, Table 1) it was 5.48. Moreover, on bovine eNOS (Table 1), the Selectivity n/e is 3.1. Besides, the Selectivity n/i at murine iNOS (Table 1) is listed as 5.5.

As to `Cc1cc(N)nc(C[C@@H]2CNC[C@@H]2OCCCCOc2cc(F)cc(Cl)c2)c1.Cl.Cl` [Ji23], the “n/e, ratio of Ki (eNOS) to nNOS” value at bovine eNOS (Table 2) came out at 37. Besides, the pKi at bovine eNOS (setting [1]) was 5.36; at murine iNOS (setting [2]) it was 4.91; on rat nNOS (setting [3]), 6.93. In addition, the “n/i, ratio of Ki (iNOS) to nNOS” value on murine iNOS (Table 2) turned out to be 106.

On to `Cc1cc(N)nc(C[C@@H]2CNC[C@@H]2OCCCOc2ccc(F)c(C(F)(F)F)c2)c1` [25a], for which the pKi was 5.30 on bovine eNOS (in vitro, Table 1); 4.84 on murine iNOS (in vitro, Table 1); 5.60 at rat nNOS (in vitro, Table 1). In addition, at bovine eNOS (Table 1), the Selectivity n/e worked out at 2.0. The Selectivity n/i at murine iNOS (Table 1) stood at 5.8.

With `Cc1cc(N)nc(C[C@@H]2CNC[C@@H]2OCCCCc2ccccn2)c1` [22a], the pKi is 4.80 at bovine eNOS (in vitro, Table 1); 4.90 at murine iNOS (in vitro, Table 1); 5.63 on rat nNOS (in vitro, Table 1). Besides, the Selectivity n/e on bovine eNOS (Table 1) was determined as 6.8. Also, at murine iNOS (Table 1), the Selectivity n/i is on record as 5.4.

For the molecule `Cc1cc(N)nc(C[C@@H]2CNC[C@@H]2OCCCCOc2cc(F)cc(F)c2)c1.Cl.Cl` [Ji22], the “n/e, ratio of Ki (eNOS) to nNOS” value at bovine eNOS (Table 2) is 122. Also, the pKi at bovine eNOS (setting [1]) was 3.84; at murine iNOS (setting [2]), 4.42; on rat nNOS (setting [3]) it was 5.92. The “n/i, ratio of Ki (iNOS) to nNOS” value at murine iNOS (Table 2) was determined as 32.

On to `Cc1cc(N)nc(C[C@@H]2CNC[C@@H]2OCCCOc2cc(C(F)(F)F)cc(C(F)(F)F)c2)c1` [25f], for which the pKi on bovine eNOS (in vitro, Table 1) is 5.57; at murine iNOS (in vitro, Table 1), 4.91; at rat nNOS (in vitro, Table 1), 6.29. The Selectivity n/e at bovine eNOS (Table 1) came out at 5.2. The Selectivity n/i on murine iNOS (Table 1) amounted to 23.7.

Consider `Cc1cc(N)nc(C[C@@H]2CNC[C@@H]2OCCC/C=C/c2cccc(F)c2)c1` [HH003, 6-(((3R,4R)-4-(((E)-5-(3-fluorophenyl)pent-4-en-1-yl)oxy)pyrrolidin-3-yl)methyl)-4-methylpyridin-2-amine], for which the “n/e, ratio of Ki (eNOS) to nNOS” value on bovine eNOS (Table 2) is 121. Further, the pKi on bovine eNOS (setting [1]) is 4.11; at murine iNOS (setting [2]) it was 4.45; on rat nNOS (setting [3]) it was 6.20. In addition, on murine iNOS (Table 2), the “n/i, ratio of Ki (iNOS) to nNOS” value was determined as 55.

Regarding `Cc1ccnc(CCCCO[C@H]2CNC[C@H]2Cc2cc(C)cc(N)n2)c1` [22b], the negative-log Ki (pKi) on bovine eNOS (in vitro, Table 1) is 4.59; at murine iNOS (in vitro, Table 1), 4.75; at rat nNOS (in vitro, Table 1) it was 5.97. For the same molecule, the Selectivity n/e on bovine eNOS (Table 1) is given as 23.6. Besides, the Selectivity n/i on murine iNOS (Table 1) is listed as 16.5.

Consider `Cc1cc(N)nc(C[C@H]2CNC[C@H]2OCCCCCc2cccc(F)c2)c1.Cl.Cl` [HH004], for which, on bovine eNOS (Table 2), the “n/e, ratio of Ki (eNOS) to nNOS” value worked out at 4. Also, the values for the pKi on bovine eNOS (setting [1]), on murine iNOS (setting [2]) and at rat nNOS (setting [3]) were 4.47, 3.33 and 5.04, respectively. The “n/i, ratio of Ki (iNOS) to nNOS” value at murine iNOS (Table 2) is on record as 52.

On to `Cc1cc(N)nc(C[C@@H]2CNC[C@@H]2OCCCCCc2cccc(F)c2)c1.Cl.Cl` [HH001], for which, on bovine eNOS (Table 2), the “n/e, ratio of Ki (eNOS) to nNOS” value was 37. Further, the pKi is 4.47 at bovine eNOS (setting [1]), 4.08 at murine iNOS (setting [2]) and 6.04 at rat nNOS (setting [3]). For the same molecule, the “n/i, ratio of Ki (iNOS) to nNOS” value on murine iNOS (Table 2) is 91.

As for `Cc1cc(N)nc(C[C@@H]2CNC[C@@H]2OCCCCCc2cc(F)cc(Cl)c2)c1` [HH002, 6-(((3R,4R)-4-((5-(3-chloro-5-fluorophenyl)pentyl)oxy)pyrrolidin-3-yl)methyl)-4-methylpyridin-2-amine], the “n/e, ratio of Ki (eNOS) to nNOS” value on bovine eNOS (Table 2) was 155. Besides, the pKi is 4.45 at bovine eNOS (setting [1]), 3.97 on murine iNOS (setting [2]) and 6.64 on rat nNOS (setting [3]). In addition, the “n/i, ratio of Ki (iNOS) to nNOS” value at murine iNOS (Table 2) turned out to be 461.

In the case of `Cc1cc(N)nc(C[C@@H]2CNC[C@@H]2OCCCCCc2cccc(N)c2)c1` [HH008, 6-(((3R,4R)-4-((5-(3-aminophenyl)pentyl)oxy)pyrrolidin-3-yl)methyl)-4-methylpyridin-2-amine], the “n/e, ratio of Ki (eNOS) to nNOS” value at bovine eNOS (Table 2) is reported as 1117. Also, the “n/i, ratio of Ki (iNOS) to nNOS” value on murine iNOS (Table 2) is 619.

As to `Cc1cc(N)nc(C[C@H]2CNC[C@H]2OCCCCNc2ccccn2)c1.Cl.Cl.Cl` [Ji21], the “n/e, ratio of Ki (eNOS) to nNOS” value on bovine eNOS (Table 2) is 157. Also, the figures for the pKi on bovine eNOS (setting [1]), on murine iNOS (setting [2]) and on rat nNOS (setting [3]) were 5.25, 6.01 and 7.44, respectively. The “n/i, ratio of Ki (iNOS) to nNOS” value on murine iNOS (Table 2) is reported as 27.

Regarding `Cc1cc(N)nc(C[C@@H]2CNC[C@@H]2OCCCOc2cc(F)cc(C(F)(F)F)c2)c1` [25c], the pKi at bovine eNOS (in vitro, Table 1) is 5.30; on murine iNOS (in vitro, Table 1), 4.49; on rat nNOS (in vitro, Table 1), 5.78. For the same molecule, on bovine eNOS (Table 1), the Selectivity n/e turned out to be 3.0. The Selectivity n/i on murine iNOS (Table 1) turned out to be 19.3.

Consider `Cc1cc(N)nc(C[C@@H]2CNC[C@@H]2OCCCCNc2ccccn2)c1.Cl.Cl.Cl` [Ji20], for which the “n/e, ratio of Ki (eNOS) to nNOS” value on bovine eNOS (Table 2) was determined as 154. Further, the figures for the pKi at bovine eNOS (setting [1]), at murine iNOS (setting [2]) and on rat nNOS (setting [3]) were 5.86, 6.31 and 8.05, respectively. Further, the “nNOS selectivity over eNOS compared with Ji19” value at bovine eNOS (comment on Table 2) is given as “lower nNOS selectivity over eNOS”. The “n/i, ratio of Ki (iNOS) to nNOS” value at murine iNOS (Table 2) came to 54. In addition, the “nNOS potency compared with Ji19” value on rat nNOS (comment on Table 2) was “higher nNOS potency”.

Consider `COc1ccnc(CCCCO[C@H]2CNC[C@H]2Cc2cc(C)cc(N)n2)c1` [22c], for which the pKi was 5.26 on bovine eNOS (in vitro, Table 1); 5.26 on murine iNOS (in vitro, Table 1); 6.76 on rat nNOS (in vitro, Table 1). Also, the Selectivity n/e on bovine eNOS (Table 1) came out at 31.5. The Selectivity n/i at murine iNOS (Table 1) was 31.3.

In the case of `Cc1cc(N)nc(C[C@H]2CNC[C@H]2OCCC/C=C/c2cccc(F)c2)c1.Cl.Cl` [HH005], on bovine eNOS (Table 2), the “n/e, ratio of Ki (eNOS) to nNOS” value was found to be 4. The pKi on bovine eNOS (setting [1]) is 4.16; at murine iNOS (setting [2]) it was 3.87; on rat nNOS (setting [3]) it was 4.81. Further, the “n/i, ratio of Ki (iNOS) to nNOS” value at murine iNOS (Table 2) is 9.

As for `COc1ccnc(/C=C/CCO[C@H]2CNC[C@H]2Cc2cc(C)cc(N)n2)c1` [compound 23], the pKi at bovine eNOS (in vitro, Table 1) is 5.65; on murine iNOS (in vitro, Table 1), 5.61; at rat nNOS (in vitro, Table 1), 6.45. Further, at bovine eNOS (Table 1), the Selectivity n/e is recorded as 6.3. For the same molecule, the Selectivity n/i at murine iNOS (Table 1) stood at 7.1.
